Test results taken from patent US10030027B2, “Soluble guanylate cyclase stimulators” (MERCK SHARP & DOHME CORP., priority 2015, dated 2018).

Tests used:
[1] = molecular target: human recombinant sGC enzyme (Homo sapiens (Human), UniProt Q02108+Q02153); experiment: Size Exclusion Chromatography (SEC) competition binding assay using [3H] Ex-77B as the radioligand; conditions: [3H] Ex-77B radioligand, 24 hours at 37° C.
In short: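 Recombinant human sGC binding measured by competition against tritiated Ex-77B radioligand, with non-specific binding defined by 1 μM unlabeled Ex-77B.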

sGC α1/β1 heterodimer = sGC α1/β1 heterodimer (Homo sapiens (Human), UniProt Q02108+Q02153); experiment: Cell-based sGC functional assay (cyclic GMP assay for sGC activator: CASA assay); design: % Activation: concentration or dose not given beside the values; conditions: CHO-K1/sGC cells; for Emax: CHO-K1, activity expressed as percentage of compound A (standard), read-out: % Activation; for EC50: inflection point, 4P fit, read-out: IP; for % Activation: activity expressed as percentage of compound A (standard)
In short: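 CHO-K1 cells stably expressing human sGC α1/β1 were pre-incubated 30 min at 25° C with or without 1 μM DETA-NO, then exposed to compound for 1 hr at 37° C with 0.5 mM IBMX and 2.5% DMSO final. Intracellular cGMP was measured by HTRF, expressed as % of reference sGC-HDA maximum; inflection point and maximum fold induction came from 4-parameter fits.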

Ki [1] [nM]	Emax (sGC α1/β1 heterodimer) [%]	EC50 (sGC α1/β1 heterodimer) [nM]	% Activation (sGC α1/β1 heterodimer) [%]	Compound
0.187		444	103.8	CC1(N2CCC(CCC(=O)O)C2)C(=O)Nc2nc(-c3nn(Cc4ccccc4F)c4cc(Cl)ccc34)nc(N)c21 (single isomer, unassigned) [Example 261D, 3-[1-{4-Amino-2-[6-chloro-1-(2-fluorobenzyl)-1H-indazol-3-yl]-5-methyl-6-oxo-6,7-dihydro-5H-pyrrolo[2,3-d]pyrimidin-5-yl}pyrrolidin-3-yl]propanoic acid]
0.164	141	207		CC1(c2nc3cc(C(=O)O)ccc3o2)C(=O)Nc2nc(-c3nn(Cc4ccccc4F)c4cc(Cl)ccc34)nc(N)c21 (centres unmarked) [Example 168B, 2-{4-amino-2-[6-chloro-1-(2-fluorobenzyl)-1H-indazol-3-yl]-5-methyl-6-oxo-6,7-dihydro-5H-pyrrolo[2,3-d]pyrimidin-5-yl}-1,3-benzoxazole-5-carboxylic acid]
0.097	82.4	27		CC1(N2CCC(CCC(=O)O)CC2)C(=O)Nc2nc(-c3nn(Cc4ccccc4F)c4cc(Cl)ccc34)nc(N)c21 (centres unmarked) [Example 262B, 3-(1-{4-Amino-2-[6-chloro-1-(2-fluorobenzyl)-1H-indazol-3-yl]-5-methyl-6-oxo-6,7-dihydro-5H-pyrrolo[2,3-d]pyrimidin-5-yl}piperidin-4-yl)propanoic acid]
0.151	91.2	39		CC(C)(Cc1csc([C@]2(C)C(=O)Nc3nc(-c4nn(CC5CCCCC5)c5cc(F)ccc45)nc(N)c32)n1)C(=O)O [Example 201A, (S)-3-(2-{4-amino-2-[1-(cyclohexyl-methyl)-6-fluoro-1H-indazol-3-yl]-5-methyl-6-oxo-6,7-dihydro-5H-pyrrolo[2,3-d]pyrimidin-5-yl}-1,3-thiazol-4-yl)-2,2-dimethyl-propanoic acid]
0.173	121	682		CC(C)(Cc1csc([C@]2(C)C(=O)Nc3nc(-c4nn(Cc5ccc(F)cc5)c5cc(Cl)ccc45)nc(N)c32)n1)C(=O)O [Example 174A, (S)-3-(2-{4-amino-2-[6-chloro-1-(4-fluorobenzyl)-1H-indazol-3-yl]-5-methyl-6-oxo-6,7-dihydro-5H-pyrrolo[2,3-d]pyrimidin-5-yl}-1,3-thiazol-4-yl)-2,2-dimethyl-propanoic acid]
0.17	93.5	161		CC1(c2nc(-c3ccc(C(=O)O)cc3)cs2)C(=O)Nc2nc(-c3nn(CCC(F)(F)C(F)(F)F)c4cc(Cl)ccc34)nc(N)c21 (centres unmarked) [Example 156A, 4-(2-{4-amino-2-[6-chloro-1-(3,3,4,4,4-penta-fluorobutyl)-1H-indazol-3-yl]-5-methyl-6-oxo-6,7-dihydro-5H-pyrrolo[2,3-d]pyrimidin-5-yl}-1,3-thiazol-4-yl)benzoic acid]
0.174	76.1	3380		CC1(c2ccnc(C(=O)O)c2)C(=O)Nc2nc(-c3nn(Cc4ccccc4F)c4cc(Cl)ccc34)nc(N)c21 (centres unmarked) [Example 143B, 4-{4-amino-2-[6-chloro-1-(2-fluoro-benzyl)-1H-indazol-3-yl]-5-methyl-6-oxo-6,7-dihydro-5H-pyrrolo[2,3-d]pyrimidin-5-yl} pyridine-2-carboxylic acid]
0.341	103	2020		CC(C)(C)CCn1nc(-c2nc(N)c3c(n2)NC(=O)[C@@]3(C)c2ccc(CCC(=O)O)cc2)c2cccnc21 [Example 210B, (S)-3-(4-{4-amino-2-[1-(3,3-dimethylbutyl)-1H-pyrazolo[3,4-b]pyridin-3-yl]-5-methyl-6-oxo-6,7-dihydro-5H-pyrrolo[2,3-d]pyrimidin-5-yl}phenyl)propanoic acid]
0.227		798		CC(C)(Cn1cc(C2(C)C(=O)Nc3nc(-c4nn(Cc5ccccc5F)c5cc(Cl)ccc45)nc(N)c32)nn1)C(=O)O (single isomer, unassigned) [Example 140A, 3-(4-{4-Amino-2-[6-chloro-1-(2-fluorobenzyl)-1H-indazol-3-yl]-5-methyl-6-oxo-6,7-dihydro-5H-pyrrolo[2,3-d]pyrimidin-5-yl}-1H-1,2,3-triazol-1-yl)-2,2-dimethylpropanoic acid]
0.104	90.3	159		CC1(c2cccc(C(=O)O)c2)C(=O)Nc2nc(-c3nn(Cc4ccccc4F)c4cc(Cl)ccc34)nc(N)c21 (centres unmarked) [Example 169B, 3-{4-amino-2-[6-chloro-1-(2-fluorobenzyl)-1H-indazol-3-yl]-5-methyl-6-oxo-6,7-dihydro-5H-pyrrolo[2,3-d]pyrimidin-5-yl} benzoic acid]
0.359		714	111.4	CC(C)(Cc1csc([C@]2(C)C(=O)Nc3nc(-c4nn(CC5CCCCO5)c5cc(F)ccc45)nc(N)c32)n1)C(=O)O (single isomer, unassigned) [Example 133AB]

Second part, the molecule before the results:

Compound	Ki [1] [nM]	Emax (sGC α1/β1 heterodimer) [%]	EC50 (sGC α1/β1 heterodimer) [nM]	% Activation (sGC α1/β1 heterodimer) [%]
C[C@H](NC(=O)CCc1ccc([C@]2(C)C(=O)Nc3nc(-c4nn(Cc5ccccc5F)c5ncccc45)nc(N)c32)cc1)C(=O)O [Example 103B, (5S)-(3-(4-{4-amino-2-[1-(2-fluorobenzyl)-1H-pyrazolo[3,4-b]pyridin-3-yl]-5-methyl-6-oxo-6,7-dihydro-5H-pyrrolo[2,3-d]pyrimidin-5-yl}phenyl)propanoyl)-L-alanine]	0.045	104	2950	
CC(C)(Cc1csc([C@]2(C)C(=O)Nc3nc(-c4nn(Cc5ccccc5F)c5ncc(F)cc45)nc(N)c32)n1)C(=O)O [Example 91B, (S)-3-(2-{4-amino-2-[5-fluoro-1-(2-fluorobenzyl)-1H-pyrazolo[3,4-b]pyridin-3-yl]-5-methyl-6-oxo-6,7-dihydro-5H-pyrrolo[2,3-d]pyrimidin-5-yl}-1,3-thiazol-4-yl)-2,2-dimethylpropanoic acid]	0.18	123	132	
CC(C)(Cc1coc(C2(C)C(=O)Nc3nc(-c4nn(CC5CCCCO5)c5ncccc45)nc(N)c32)n1)C(=O)O (single isomer, unassigned) [Example 124AA, 3-{2-[4-amino-5-methyl-6-oxo-2-{1-[tetrahydro-2H-pyran-2-ylmethyl]-1H-pyrazolo[3,4-b]pyridin-3-yl}-6,7-dihydro-5H-pyrrolo[2,3-d]pyrimidin-5-yl]-1,3-oxazol-4-yl}-2,2-dimethylpropanoic acid]	0.506	76.5	1600	
CC1(c2ccc(CCC(=O)O)c(Br)c2)C(=O)Nc2nc(-c3nn(CCC(F)(F)C(F)(F)F)c4cc(Cl)ccc34)nc(N)c21 (centres unmarked) [Example 4B, 3-(4-{4-amino-2-[6-chloro-1-(3,3,4,4,4-pentafluoro-butyl)-1H-indazol-3-yl]-5-methyl-6-oxo-6,7-dihydro-5H-pyrrolo[2,3-d]pyrimidin-5-yl}-2-bromophenyl)propanoic acid]	0.391	126	294	
C[C@@]1(c2ccc(CCC(=O)O)cc2)C(=O)Nc2nc(-c3nn(CCCC(F)(F)F)c4ncc(F)cc34)nc(N)c21 [Example 18B, (S)-3-(4-{4-amino-2-[5-fluoro-1-(4,4,4-trifluorobutyl)-1H-pyrazolo[3,4-b]pyridin-3-yl]-5-methyl-6-oxo-6,7-dihydro-5H-pyrrolo[2,3-d]pyrimidin-5-yl}phenyl)propanoic acid]	0.92	95	2500	
Cc1nc([C@]2(C)C(=O)Nc3nc(-c4nn(CCC(F)(F)C(F)(F)F)c5ncccc45)nc(N)c32)sc1CC(=O)O [Example 83B, (S)-(2-{4-amino-5-methyl-6-oxo-2-[1-(3,3,4,4,4-pentafluorobutyl)-1H-pyrazolo[3,4-b]pyridin-3-yl]-6,7-dihydro-5H-pyrrolo[2,3-d]pyrimidin-5-yl}-4-methyl-1,3-thiazol-5-yl)acetic acid]	1.74	80	1420	
CC(C)(Cc1csc([C@]2(C)C(=O)Nc3nc(-c4nn(CCC(F)(F)C(F)(F)F)c5ncccc45)nc(N)c32)n1)C(=O)NO [Example 97B, (S)-3-(2-{4-Amino-5-methyl-6-oxo-2-[1-(3,3,4,4,4-pentafluorobutyl)-1H-pyrazolo[3,4-b]pyridin-3-yl]-6,7-dihydro-5H-pyrrolo[2,3-d]pyrimidin-5-yl}-1,3-thiazol-4-yl)-N-hydroxy-2,2-dimethylpropanamide]	0.799	122	1150	
CC1(c2nc(-c3cccc(C(=O)O)c3)cs2)C(=O)Nc2nc(-c3nn(CCC(F)(F)C(F)(F)F)c4cc(Cl)ccc34)nc(N)c21 (centres unmarked) [Example 93A, 3-(2-{4-amino-2-[6-chloro-1-(3,3,4,4,4-pentafluorobutyl)-1H-indazol-3-yl]-5-methyl-6-oxo-6,7-dihydro-5H-pyrrolo[2,3-d]pyrimidin-5-yl}-1,3-thiazol-4-yl)benzoic acid]	0.602	63	575	
CC1(c2ccc(CC(=O)O)cc2)C(=O)Nc2nc(-c3nn(CCC(F)(F)C(F)(F)F)c4ncccc34)nc(N)c21 (centres unmarked) [Example 118A, 2-(4-{4-amino-5-methyl-6-oxo-2-[1-(3,3,4,4,4-pentafluorobutyl)-1H-pyrazolo[3,4-b]pyridin-3-yl]-6,7-dihydro-5H-pyrrolo[2,3-d]pyrimidin-5-yl}phenyl)acetic acid]	0.166	86	3510	
